Laboratory results taken from patent publication US10738030B2, “Modulators of cystic fibrosis transmembrane conductance regulator” (Vertex Pharmaceuticals Incorporated, priority 2016, dated 2020).

Target: T1, F508del (Homo sapiens, UniProt P13569, DEL508-508)
T1 construct: expressed in transfected cells
Experiment: Membrane potential optical assay (FRET voltage-sensor dyes), identification of correction compounds
Assay type: cell-based
Conditions: NIH3T3 cells stably expressing F508del, procedures described above; for Emax: maximum efficacy, read-out: Max Efficacy; for EC50: modulation of CFTR activity
Protocol: (§1) NIH3T3 mouse fibroblasts stably expressing F508del are used for optical measurements of membrane potential. The cells are maintained at 37° C. in 5% CO2 and 90% humidity in Dulbecco's modified Eagle's medium supplemented with 2 mM glutamine, 10% fetal bovine serum, 1×NEAA, β-ME, 1× pen/strep, and 25 mM HEPES in 175 cm^2 culture flasks. For all optical assays, the cells were seeded at 12,000 cells/well in 384-well matrigel-coated plates and cultured for 18-24 hrs at 37° C. for the potentiator assay. For the correction assays, the cells are cultured at 37° C. with and without compounds for 18-24 hours.
Membrane potential optical methods for assaying F508del modulation properties of compounds.
The optical membrane potential assay utilized voltage-sensitive FRET sensors described by Gonzalez and Tsien (See Gonzalez, J. E. and R. Y. Tsien (1995) “Voltage sensing by fluorescence resonance energy transfer in single cells” Biophys J 69(4): 1272-80, and Gonzalez, J. E. and R. Y. Tsien (1997) “Improved indicators of cell membrane potential that use fluorescence resonance energy transfer” Chem Biol 4(4): 269-77) in combination with instrumentation for measuring fluorescence changes such as the Voltage/Ion Probe Reader (VIPR) (See, Gonzalez, J. E., K. Oades, et al. (1999) “Cell-based assays and instrumentation for screening ion-channel targets” Drug Discov Today 4(9): 431-439).
These voltage sensitive assays are based on the change in fluorescence resonant energy transfer (FRET) between the membrane-soluble, voltage-sensitive dye, DiSBAC2(3), and a fluorescent phospholipid, CC2-DMPE, which is attached to the outer leaflet of the plasma membrane and acts as a FRET donor. Changes in membrane potential (Vm) cause the negatively charged DiSBAC2(3) to redistribute across the plasma membrane and the amount of energy transfer from CC2-DMPE changes accordingly. The changes in fluorescence emission were monitored using VIPR™ II, which is an integrated liquid handler and fluorescent detector designed to conduct cell-based screens in 96- or 384-well microtiter plates.
To identify small molecules that correct the trafficking defect associated with F508del; a single-addition HTS assay format was developed. The cells were incubated in serum-free medium for 16 hrs at 37° C. in the presence or absence (negative control) of test compound. As a positive control, cells plated in 384-well plates were incubated for 16 hrs at 27° C. to “temperature-correct” F508del. The cells were subsequently rinsed 3× with Krebs Ringers solution and loaded with the voltage-sensitive dyes. To activate F508del, 10 μM forskolin and the CFTR potentiator, genistein (20 μM), were added along with Cl^−-free medium to each well. The addition of Cl^−-free medium promoted Cl^− efflux in response to F508del activation and the resulting membrane depolarization was optically monitored using the FRET-based voltage-sensor dyes.
• Bath Solution #1: (in mM) NaCl 160, KCl 4.5, CaCl2 2, MgCl2 1, HEPES 10, pH 7.4 with NaOH. • Chloride-free bath solution: Chloride salts in Bath Solution #1 (above) are substituted with gluconate salts. • CC2-DMPE: Prepared as a 10 mM stock solution in DMSO and stored at −20° C. • DiSBAC2(3): Prepared as a 10 mM stock in DMSO and stored at −20° C. Cell Culture
as §1, with “seeded at 30,000/well in 384-well” for “seeded at 12,000 cells/well in 384-well”, “cultured for 2 hrs at” for “cultured for 18-24 hrs at”, “37° C. before culturing at 27° C. for 24 hrs for the” for “37° C. for the”, “cultured at 27° C. or 37° C.” for “cultured at 37° C.”, “compounds for 16-24 hours.” for “compounds for 18-24 hours.”

T1 sequence (P13569 with tags, fused parts or gaps DEL508-508): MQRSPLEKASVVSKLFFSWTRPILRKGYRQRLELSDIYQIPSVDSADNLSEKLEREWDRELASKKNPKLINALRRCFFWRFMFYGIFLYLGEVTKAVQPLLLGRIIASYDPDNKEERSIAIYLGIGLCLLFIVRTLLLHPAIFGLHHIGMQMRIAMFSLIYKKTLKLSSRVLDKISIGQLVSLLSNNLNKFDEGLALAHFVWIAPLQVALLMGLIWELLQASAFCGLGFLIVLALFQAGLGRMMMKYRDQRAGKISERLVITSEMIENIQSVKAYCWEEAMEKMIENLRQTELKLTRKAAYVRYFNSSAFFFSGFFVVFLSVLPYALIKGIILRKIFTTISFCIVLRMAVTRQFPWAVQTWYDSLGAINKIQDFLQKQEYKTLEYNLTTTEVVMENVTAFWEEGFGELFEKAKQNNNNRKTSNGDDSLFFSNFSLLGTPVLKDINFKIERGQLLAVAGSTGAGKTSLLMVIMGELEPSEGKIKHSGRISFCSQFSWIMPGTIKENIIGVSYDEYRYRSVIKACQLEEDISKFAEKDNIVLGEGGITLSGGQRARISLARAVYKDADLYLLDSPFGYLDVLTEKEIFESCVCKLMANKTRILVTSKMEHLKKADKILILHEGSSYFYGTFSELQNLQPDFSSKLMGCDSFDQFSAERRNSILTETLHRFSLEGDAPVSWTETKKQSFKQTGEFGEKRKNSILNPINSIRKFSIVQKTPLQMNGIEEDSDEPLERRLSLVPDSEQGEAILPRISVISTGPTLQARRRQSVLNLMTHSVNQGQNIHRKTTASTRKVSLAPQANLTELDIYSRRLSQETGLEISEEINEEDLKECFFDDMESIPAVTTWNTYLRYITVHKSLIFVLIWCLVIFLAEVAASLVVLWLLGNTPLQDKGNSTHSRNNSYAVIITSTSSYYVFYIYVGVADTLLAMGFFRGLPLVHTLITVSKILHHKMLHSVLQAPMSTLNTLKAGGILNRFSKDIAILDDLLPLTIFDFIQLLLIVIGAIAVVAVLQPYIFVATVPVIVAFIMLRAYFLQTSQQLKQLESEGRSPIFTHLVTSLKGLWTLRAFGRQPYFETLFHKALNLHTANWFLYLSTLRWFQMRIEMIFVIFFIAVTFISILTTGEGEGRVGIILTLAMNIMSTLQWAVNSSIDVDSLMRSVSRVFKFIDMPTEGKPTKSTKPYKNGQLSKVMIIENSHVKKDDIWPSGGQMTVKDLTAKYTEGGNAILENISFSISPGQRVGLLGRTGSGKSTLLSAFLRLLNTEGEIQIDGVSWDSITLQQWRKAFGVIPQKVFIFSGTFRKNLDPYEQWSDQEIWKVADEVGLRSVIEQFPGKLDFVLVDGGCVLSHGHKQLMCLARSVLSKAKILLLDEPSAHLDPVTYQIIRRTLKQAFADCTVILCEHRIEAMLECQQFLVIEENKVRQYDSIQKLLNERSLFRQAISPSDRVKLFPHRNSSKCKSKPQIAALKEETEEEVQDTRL

SMILES	Emax	EC50
CC(C)COc1cc(F)cc(-c2ccc(C(=O)NS(=O)(=O)c3cccc(N)n3)c(N(C)CC(F)F)n2)c1 [Compound 1, N-[(6-amino-2-pyridyl)sulfonyl]-2-[2,2-difluoroethyl(methyl)amino]-6-(3-fluoro-5-isobutoxy-phenyl)pyridine-3-carboxamide]	> 80%	< 3 µM
CC(C)CCOc1nc(-c2cc(F)cc(OCC(C)C)c2)ccc1C(=O)NS(=O)(=O)c1cccc(N)n1 [Compound 2, N-[(6-amino-2-pyridyl)sulfonyl]-6-(3-fluoro-5-isobutoxy-phenyl)-2-isopentyloxy-pyridine-3-carboxamide]	> 80%	< 3 µM
CC(C)COc1cc(F)cc(-c2ccc(C(=O)NS(=O)(=O)c3cccc(N)n3)c(OCCC(C)(C)C)n2)c1 [Compound 3, N-[(6-amino-2-pyridyl)sulfonyl]-2-(3,3-dimethylbutoxy)-6-(3-fluoro-5-isobutoxy-phenyl)pyridine-3-carboxamide]	> 80%	< 3 µM
CC(C)COc1cc(F)cc(-c2ccc(C(=O)NS(=O)(=O)c3cccc(N)n3)c(OCCOC(C)(C)C)n2)c1 [Compound 4, N-[(6-amino-2-pyridyl)sulfonyl]-2-(2-tert-butoxyethoxy)-6-(3-fluoro-5-isobutoxy-phenyl)pyridine-3-carboxamide]	30 to 80%	< 3 µM
CC(C)COc1cc(F)cc(-c2ccc(C(=O)NS(=O)(=O)c3cccc(N)n3)c(OC(C)C)n2)c1 [Compound 5, N-[(6-amino-2-pyridyl)sulfonyl]-6-(3-fluoro-5-isobutoxy-phenyl)-2-isopropoxy-pyridine-3-carboxamide]	> 80%	< 3 µM
CC(C)COc1cc(F)cc(-c2ccc(C(=O)NS(=O)(=O)c3cccc(N)n3)c(OC(C)C(F)(F)C(F)F)n2)c1 (centres unmarked) [Compound 6, N-[(6-amino-2-pyridyl)sulfonyl]-6-(3-fluoro-5-isobutoxy-phenyl)-2-(2,2,3,3-tetrafluoro-1-methyl-propoxy)pyridine-3-carboxamide]	30 to 80%	< 3 µM
CC(C)COc1cc(F)cc(-c2ccc(C(=O)NS(=O)(=O)c3cccc(N)n3)c3nc(C(F)(F)F)cn23)c1 [Compound 7, N-[(6-amino-2-pyridyl)sulfonyl]-5-(3-fluoro-5-isobutoxy-phenyl)-2-(trifluoromethyl)imidazo[1,2-a]pyridine-8-carboxamide]	30 to 80%	< 3 µM
CCN(CC)c1nc(-c2ccc(OC(C)C)nc2)ccc1C(=O)NS(=O)(=O)c1cccc(N)n1 [Compound 8, N-((6-Aminopyridin-2-yl)sulfonyl)-6-(diethylamino)-6′-isopropoxy-[2,3′-bipyridine]-5-carboxamide]	30 to 80%	3 to 10 µM
CC(C)COc1cc(F)cc(-c2ccc(C(=O)NS(=O)(=O)c3cccc(N)n3)c(OC(C)CC(F)(F)F)n2)c1 (centres unmarked) [Compound 9, N-[(6-amino-2-pyridyl)sulfonyl]-6-(3-fluoro-5-isobutoxy-phenyl)-2-(3,3,3-trifluoro-1-methyl-propoxy)pyridine-3-carboxamide]	30 to 80%	< 3 µM
COc1nc(-c2cc(F)cc(OCC(C)C)c2)ccc1C(=O)NS(=O)(=O)c1cccc(N)n1 [Compound 10, N-[(6-amino-2-pyridyl)sulfonyl]-6-(3-fluoro-5-isobutoxy-phenyl)-2-methoxy-pyridine-3-carboxamide]	30 to 80%	< 3 µM
CCCCCOc1nc(-c2cc(F)cc(OCC(C)C)c2)ccc1C(=O)NS(=O)(=O)c1cccc(N)n1 [Compound 11, N-[(6-amino-2-pyridyl)sulfonyl]-6-(3-fluoro-5-isobutoxy-phenyl)-2-pentoxy-pyridine-3-carboxamide]	> 80%	< 3 µM
CCC(C)C(C)Oc1nc(-c2cc(F)cc(OCC(C)C)c2)ccc1C(=O)NS(=O)(=O)c1cccc(N)n1 (centres unmarked) [Compound 12, N-[(6-amino-2-pyridyl)sulfonyl]-2-(1,2-dimethylbutoxy)-6-(3-fluoro-5-isobutoxy-phenyl)pyridine-3-carboxamide]	> 80%	< 3 µM
CCOCCOc1nc(-c2cc(F)cc(OCC(C)C)c2)ccc1C(=O)NS(=O)(=O)c1cccc(N)n1 [Compound 13, N-[(6-amino-2-pyridyl)sulfonyl]-2-(2-ethoxyethoxy)-6-(3-fluoro-5-isobutoxy-phenyl)pyridine-3-carboxamide]	30 to 80%	< 3 µM
CCN(c1nc(-c2ccc(OC(C)C)nc2)ccc1C(=O)NS(=O)(=O)c1cccc(N)n1)C(C)C [Compound 14, N-[(6-amino-2-pyridyl)sulfonyl]-2-[ethyl(isopropyl)amino]-6-(6-isopropoxy-3-pyridyl)pyridine-3-carboxamide]	30 to 80%	< 3 µM
CC(C)(C)COc1nc(C(C)(C)C)ccc1C(=O)NS(=O)(=O)c1cccc(N)n1 [Compound 15, N-[(6-amino-2-pyridyl)sulfonyl]-6-tert-butyl-2-(2,2-dimethylpropoxy)pyridine-3-carboxamide]	30 to 80%	< 3 µM
CCN(c1nc(-c2cc(F)cc(OCC(C)C)c2)ccc1C(=O)NS(=O)(=O)c1ccn[nH]1)C(C)C [Compound 16, 2-[ethyl(isopropyl)amino]-6-(3-fluoro-5-isobutoxy-phenyl)-N-(1H-pyrazol-5-ylsulfonyl)pyridine-3-carboxamide]	> 80%	< 3 µM
CC(C)COc1cc(F)cc(-c2ccc(C(=O)NS(=O)(=O)c3cccc(N)n3)c(N(C)[C@@H](C)C(F)(F)F)n2)c1 [Compound 17, N-[(6-amino-2-pyridyl)sulfonyl]-6-(3-fluoro-5-isobutoxy-phenyl)-2-[methyl-[(1 S)-2,2,2-trifluoro-1-methyl-ethyl]amino]pyridine-3-carboxamide]	> 80%	< 3 µM
CCC(COC)Oc1nc(-c2cc(F)cc(OCC(C)C)c2)ccc1C(=O)NS(=O)(=O)c1cccc(N)n1 (centres unmarked) [Compound 18, N-[(6-amino-2-pyridyl)sulfonyl]-6-(3-fluoro-5-isobutoxy-phenyl)-2-[1-(methoxymethyl)propoxy]pyridine-3-carboxamide]	30 to 80%	< 3 µM
CC(C)COc1cc(F)cc(-c2ccc(C(=O)NS(=O)(=O)c3cccc(N)n3)c(N(C)C)n2)c1 [Compound 19, N-[(6-amino-2-pyridyl)sulfonyl]-2-(dimethylamino)-6-(3-fluoro-5-isobutoxy-phenyl)pyridine-3-carboxamide]	> 80%	< 3 µM
COC[C@H](C)Oc1nc(-c2cc(F)cc(OCC(C)C)c2)ccc1C(=O)NS(=O)(=O)c1cccc(N)n1 [Compound 20, N-[(6-amino-2-pyridyl)sulfonyl]-6-(3-fluoro-5-isobutoxy-phenyl)-2-[(1S)-2-methoxy-1-methyl-ethoxy]pyridine-3-carboxamide]	30 to 80%	< 3 µM
COCCCOc1nc(-c2cc(F)cc(OCC(C)C)c2)ccc1C(=O)NS(=O)(=O)c1cccc(N)n1 [Compound 21, N-[(6-amino-2-pyridyl)sulfonyl]-6-(3-fluoro-5-isobutoxy-phenyl)-2-(3-methoxypropoxy)pyridine-3-carboxamide]	30 to 80%	< 3 µM
COC(C)(C)CCOc1nc(-c2cc(F)cc(OCC(C)C)c2)ccc1C(=O)NS(=O)(=O)c1cccc(N)n1 [Compound 22, N-[(6-amino-2-pyridyl)sulfonyl]-6-(3-fluoro-5-isobutoxy-phenyl)-2-(3-methoxy-3-methyl-butoxy)pyridine-3-carboxamide]	30 to 80%	< 3 µM
